Measured values as given in the NIST ThermoML archive (doi:10.1016/j.jct.2006.08.009).

Assay: mn = molality of the nth substance listed, in mol/kg
Settings: 350 kPa, Liquid; for apparent molar heat capacity: Extra sensitive DSC

OC[C@@H](O)[C@@H](O)CO [meso-1,2,3,4-butanetetrol] + O
Settings | apparent molar heat capacity [J/K/mol] | mass density [kg/m3]
278.15 K, m1 = 0.0201 | 261 | 1000.64
278.15 K, m1 = 0.05 | 279 | 1001.78
278.15 K, m1 = 0.0999 | 275.3 | 1003.47
278.15 K, m1 = 0.2501 | 273 | 1009.14
278.15 K, m1 = 0.4998 | 272.1 | 1017.67
278.15 K, m1 = 1 | 270.3 | 1034.19
278.15 K, m1 = 2.002 | 264 | 1062.98
278.15 K, m1 = 3.003 | 267.2 | 1087.04
283.15 K, m1 = 0.0201 | 273 | 1000.38
283.15 K, m1 = 0.05 | 290 | 1001.54
283.15 K, m1 = 0.0999 | 287.2 | 1003.19
283.15 K, m1 = 0.2501 | 285.1 | 1008.79
283.15 K, m1 = 0.4998 | 284.1 | 1017.48
283.15 K, m1 = 1 | 282.7 | 1033.48
283.15 K, m1 = 2.002 | 277.2 | 1061.96
283.15 K, m1 = 3.003 | 279.1 | 1085.8
288.15 K, m1 = 0.0201 | 282 | 999.84
288.15 K, m1 = 0.05 | 300 | 1000.96
288.15 K, m1 = 0.0999 | 296.3 | 1002.66
288.15 K, m1 = 0.2501 | 294.4 | 1008.13
288.15 K, m1 = 0.4998 | 293.4 | 1016.68
288.15 K, m1 = 1 | 291.9 | 1032.49
288.15 K, m1 = 2.002 | 286.3 | 1060.61
288.15 K, m1 = 3.003 | 288 | 1084.24
293.15 K, m1 = 0.0201 | 290 | –
293.15 K, m1 = 0.05 | 307 | –
293.15 K, m1 = 0.0999 | 303.8 | –
293.15 K, m1 = 0.2501 | 302.3 | –
293.15 K, m1 = 0.4998 | 301.3 | –
293.15 K, m1 = 1 | 299.9 | –
293.15 K, m1 = 2.002 | 294.2 | –
293.15 K, m1 = 3.003 | 295.7 | –
298.15 K, m1 = 0.0201 | 296 | 997.79
298.15 K, m1 = 0.05 | 314 | 998.88
298.15 K, m1 = 0.0999 | 310.6 | 1000.55
298.15 K, m1 = 0.2501 | 309 | 1005.86
298.15 K, m1 = 0.4998 | 308.1 | 1014.19
298.15 K, m1 = 1 | 306.6 | 1029.78
298.15 K, m1 = 2.002 | 300.7 | 1057.38
298.15 K, m1 = 3.003 | 302.1 | 1080.61
303.15 K, m1 = 0.0201 | 301 | –
303.15 K, m1 = 0.05 | 320 | –
303.15 K, m1 = 0.0999 | 316.6 | –
303.15 K, m1 = 0.2501 | 315 | –
303.15 K, m1 = 0.4998 | 314 | –
303.15 K, m1 = 1 | 312.5 | –
303.15 K, m1 = 2.002 | 306.6 | –
303.15 K, m1 = 3.003 | 307.8 | –
308.15 K, m1 = 0.0201 | 307 | 994.74
308.15 K, m1 = 0.05 | 325 | 995.77
308.15 K, m1 = 0.0999 | 321.8 | 997.29
308.15 K, m1 = 0.2501 | 320.2 | 1002.7
308.15 K, m1 = 0.4998 | 319.2 | 1010.88
308.15 K, m1 = 1 | 317.6 | 1026.18
308.15 K, m1 = 2.002 | 311.8 | 1053.42
308.15 K, m1 = 3.003 | 312.9 | 1076.46
313.15 K, m1 = 0.0201 | 311 | –
313.15 K, m1 = 0.05 | 330 | –
313.15 K, m1 = 0.0999 | 326.5 | –
313.15 K, m1 = 0.2501 | 324.8 | –
313.15 K, m1 = 0.4998 | 323.8 | –
313.15 K, m1 = 1 | 322.3 | –
313.15 K, m1 = 2.002 | 316.4 | –
313.15 K, m1 = 3.003 | 317.4 | –
318.15 K, m1 = 0.0201 | 315 | 990.96
318.15 K, m1 = 0.05 | 334 | 991.95
318.15 K, m1 = 0.0999 | 330.6 | 993.44
318.15 K, m1 = 0.2501 | 328.9 | 998.78
318.15 K, m1 = 0.4998 | 327.9 | 1006.84
318.15 K, m1 = 1 | 326.4 | 1021.96
318.15 K, m1 = 2.002 | 320.6 | 1048.89
318.15 K, m1 = 3.003 | 321.5 | 1071.67
323.15 K, m1 = 0.0201 | 318 | –
323.15 K, m1 = 0.05 | 338 | –
323.15 K, m1 = 0.0999 | 334.4 | –
323.15 K, m1 = 0.2501 | 332.7 | –
323.15 K, m1 = 0.4998 | 331.6 | –
323.15 K, m1 = 1 | 330.1 | –
323.15 K, m1 = 2.002 | 324.5 | –
323.15 K, m1 = 3.003 | 325.24 | –
328.15 K, m1 = 0.0201 | 322 | 986.49
328.15 K, m1 = 0.05 | 341 | 987.47
328.15 K, m1 = 0.0999 | 337.8 | 988.94
328.15 K, m1 = 0.2501 | 336 | 994.21
328.15 K, m1 = 0.4998 | 335 | 1002.15
328.15 K, m1 = 1 | 333.5 | 1017.15
328.15 K, m1 = 2.002 | 328 | 1043.78
328.15 K, m1 = 3.003 | 328.66 | 1066.4
333.15 K, m1 = 0.0201 | 325 | –
333.15 K, m1 = 0.05 | 344 | –
333.15 K, m1 = 0.0999 | 341 | –
333.15 K, m1 = 0.2501 | 339.2 | –
333.15 K, m1 = 0.4998 | 338.1 | –
333.15 K, m1 = 1 | 336.7 | –
333.15 K, m1 = 2.002 | 331.2 | –
333.15 K, m1 = 3.003 | 331.8 | –
338.15 K, m1 = 0.0201 | 328 | 981.39
338.15 K, m1 = 0.05 | 347 | 982.33
338.15 K, m1 = 0.0999 | 343.9 | 983.83
338.15 K, m1 = 0.2501 | 342 | 988.99
338.15 K, m1 = 0.4998 | 340.9 | 996.87
338.15 K, m1 = 1 | 339.5 | 1011.73
338.15 K, m1 = 2.002 | 334.2 | 1038.15
338.15 K, m1 = 3.003 | 334.7 | 1060.56
343.15 K, m1 = 0.0201 | 330 | –
343.15 K, m1 = 0.05 | 350 | –
343.15 K, m1 = 0.0999 | 346.4 | –
343.15 K, m1 = 0.2501 | 344.5 | –
343.15 K, m1 = 0.4998 | 343.5 | –
343.15 K, m1 = 1 | 342.1 | –
343.15 K, m1 = 2.002 | 336.9 | –
343.15 K, m1 = 3.003 | 337.33 | –
348.15 K, m1 = 0.0201 | 332 | 975.69
348.15 K, m1 = 0.05 | 352 | 976.65
348.15 K, m1 = 0.0999 | 348.7 | 978.12
348.15 K, m1 = 0.2501 | 346.8 | 983.23
348.15 K, m1 = 0.4998 | 345.8 | 991.14
348.15 K, m1 = 1 | 344.4 | 1005.88
348.15 K, m1 = 2.002 | 339.4 | 1032.07
348.15 K, m1 = 3.003 | 339.73 | 1054.35
353.15 K, m1 = 0.0201 | 334 | –
353.15 K, m1 = 0.05 | 354 | –
353.15 K, m1 = 0.0999 | 350.7 | –
353.15 K, m1 = 0.2501 | 348.9 | –
353.15 K, m1 = 0.4998 | 347.8 | –
353.15 K, m1 = 1 | 346.5 | –
353.15 K, m1 = 2.002 | 341.77 | –
353.15 K, m1 = 3.003 | 341.88 | –
358.15 K, m1 = 0.0201 | 336 | 969.51
358.15 K, m1 = 0.05 | 356 | 970.13
358.15 K, m1 = 0.0999 | 352.4 | 971.92
358.15 K, m1 = 0.2501 | 350.5 | 976.99
358.15 K, m1 = 0.4998 | 349.5 | 984.82
358.15 K, m1 = 1 | 348.2 | 999.52
358.15 K, m1 = 2.002 | 343.88 | 1025.52
358.15 K, m1 = 3.003 | 343.6 | 1047.59
363.15 K, m1 = 0.0201 | 337 | –
363.15 K, m1 = 0.05 | 357 | –
363.15 K, m1 = 0.0999 | 353 | –
363.15 K, m1 = 0.2501 | 351.1 | –
363.15 K, m1 = 0.4998 | 350 | –
363.15 K, m1 = 1 | 348.7 | –
363.15 K, m1 = 2.002 | 345.8 | –
363.15 K, m1 = 3.003 | 344.06 | –
368.15 K, m1 = 0.0201 | – | 962.63
368.15 K, m1 = 0.05 | – | 963.59
368.15 K, m1 = 0.0999 | – | 965.08
368.15 K, m1 = 0.2501 | – | 970.07
368.15 K, m1 = 0.4998 | – | 978.02
368.15 K, m1 = 1 | – | 992.7
368.15 K, m1 = 2.002 | – | 1018.73
368.15 K, m1 = 3.003 | – | 1041.19
